Reference: publication PMC8861050, “Design, synthesis and evaluation of novel 2-oxoindoline-based acetohydrazides as antitumor agents” (Scientific Reports, 2022)

Columns and labels:
[1] = system: SW620 (colon cancer); assay: SRB cytotoxicity assay, SW620; type: cell-based; conditions: Homo sapiens, SW-620, 48 h incubation, mean ± SEM of 3 independent experiments
Method in brief: (§1)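 Cells in DMEM were seeded at 3 × 10^4 cells/mL and preincubated 24 h at 37 °C, 5% CO2. Compounds were added in medium at 1% DMSO for 48 h. Cell density was read by sulforhodamine B staining, with IC50 by probit analysis as the mean of three independent screens.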

[2] = system: PC3 (prostate cancer); assay: SRB cytotoxicity assay, PC3; type: cell-based; conditions: Homo sapiens, 48 h incubation, mean ± SEM of 3 independent experiments
Method in brief: as §1

[3] = system: NCI-H23 (lung cancer); assay: SRB cytotoxicity assay, NCI-H23; type: cell-based; conditions: Homo sapiens, 48 h incubation, mean ± SEM of 3 independent experiments
Method in brief: as §1

[4] = Cytotoxicity on normal mesenchymal stem cells; type: cell-based; conditions: human bone marrow-derived mesenchymal stem cells; mean ± SEM; read-out: Cytotoxicity (IC50) MSCs
[5] = system: U937 human lymphoma cells; assay: Cell cycle analysis (PI, flow cytometry); type: cell-based; conditions: 24 h
Description: U937 human lymphoma cells (5 × 10^5/mL per well) were plated in 6-well culture plates and allowed to grow for 24 h. In our first experiment, we examined the effects of 4f, 4h, 4n, 4o, 4p, and PAC-1 on cell cycles at 50 µM. In the second experiment, we examined the dose-dependent effect of 4o at 5, 10, and 30 µM and PAC-1 at 30 µM on cell cycles. The cells were treated with compounds for 24 h, and then harvested. The harvested cells were washed twice with ice-cold PBS, fixed in 75% ice-cold ethanol, and stained with propidium iodide (PI) in the presence of RNase at room temperature for 30 min. The stained cells were analyzed for DNA content using a FACScalibur flow cytometer (BD Biosciences, San Jose, CA, USA) and the data were processed using Cell Quest Pro software (BD Biosciences).
(§2) Figure 3 Cell cycle analysis after treatment with some compounds. U937 human lymphoma cells were treated with compounds (50 µM) for 24 h. The harvested cells were stained with propidium iodide (PI) in the presence of RNase and then were analyzed for DNA content by using flow cytometry. Ten thousand cells were acquired (n = 3). UN untreated, VH vehicle (DMSO. 0.1%). Representative histograms (A) and bar graphs (B) are shown. p values were calculated using one-way ANOVA in GraphPad Software (San Diego, CA, USA). *p < 0.01 vs VH control.
as §2, with “Figure 4” for “Figure 3”, “analysis under” for “analysis after”, “with different concentrations of compound 4o.” for “with some compounds.”, “with compound 4o at 5, 10 and 30 µM or PAC-1 (30” for “with compounds (50”

[6] = system: SW620, PC-3, and NCI-H23 cell lines; assay: Cytotoxicity, summary statements over three human cancer cell lines; type: cell-based; conditions: SW620, PC-3, NCI-H23
Source text: Three human cancer cell lines: colon cancer (SW620), prostate cancer (PC3), and lung cancer (NCI-H23) were used for sceening the cytotoxicity of the compounds. The cancer cells were purchased from American Type Culture Collection (Manassas, VA, USA). Other reagents/media for cell culture were obtained from GIBCO (Grand Island, New York, USA). The testing cancer cells were culture in Dulbecco’s Modified Eagle Medium until confluence. Then, they were trypsinized and suspended at the level of 3 × 10^4 cells/mL of cell culture medium. On day 0, cancer cells were seeded at a volume of 180 µL/well of 96-well plates and incubated for 24 h at 37 °C in a 5% CO2 incubator. On day 1, 20 µL of various concentrations of testing compounds were added to each well of the 96-well plates. Chemicals were dissolved in dimethyl sulfoxide (DMSO, stock) and diluted in culture medium (1% DMSO) before adding to the culture. After 48 h incubation, the sulforhodamine B assay was used for cell density determination with slight modifications[22]–[26]. The Probits were used for the calculation of IC50 values. The reported IC50 were the averages of three independent screening (SD ≤ 10%)[27].
Overally, 5-fluorinated compounds (4i–p and 5d–f) were slightly more cytotoxic than non-fluorinated ones (4a–h, 5a–c). […]

Question: With `COc1ccc(/C=N/NC(=O)CN2C(=O)Cc3cc(F)ccc32)c(O)c1` [Compound 4o, (E)-N'-(2-Hydroxy-4-methoxybenzylidene)-2-(5-fluoro-2-oxoindolin-1-yl)acetohydrazide] as the molecule, how does the IC50 [1] read?
Answer: 1.88 ± 0.02 µM

Question: And the IC50 [2]?
Answer: 1.83 ± 0.07 µM

Question: And the IC50 [3]?
Answer: 1 ± 0.01 µM

Question: And the IC50 [4]?
Answer: 12.8 ± 0.71 µM

Question: What about the “Effect on cell cycle, dose dependence” value ([5]; 5 µM) of the same molecule?
Answer: inhibited cell cycles

Question: What about the “Effect on cell cycle distribution” value ([5]; 50 µM) of the same molecule?
Answer: accumulated U937 cells in the S phase

Question: And the “IC50 values relative to PAC-1” value [6]?
Answer: three- to five-fold lower

Question: What about the melting point of the same molecule?
Answer: 186 to 187 °C
